Common to all, as to test: growth of human tumour cells (NCI), 48 h
For test [1], the system named is A498 renal.
Test [2] relates to DU-145 prostate.
The subject of test [3] is EKVX NSCLC.
Test [4] has as its system HS 578T breast.
The test system of test [5] is KM12 colon.
Test [6] concerns MDA-MB-435.
In test [7] the test system is NCI-H226 lung.
In test [8] the test system is RXF 393 renal.
Test [9] concerns SK-OV-3 ovarian.
Test [10] has as its system SR leukemia.

Several values for one entry are separate records, joined by “and”; a condition that tells them apart may be missing. Equal entries are not always repeated.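 How tested: cells in 96-well plates exposed to compound for 48 hours at five concentrations. Abbreviation: GI50, concentration required for 50% inhibition of growth. TGI is the concentration that stops growth completely.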

Regarding `CC([C@H]1CCC2C3CCC4C(=O)C(NC=O)=CC[C@]4(C)C3CC[C@@]21C)N(C)C` (some centres not stated), the GI50 in test [1] was 3.83 µM; in [2], 8.07 µM; in [3] it was 3.01 µM; in test [4], 4.6 µM; in test [5], 2.88 µM; in test [6], 2.81 µM. The GI50 was 4.72 µM in test [7], 4.66 µM in [8], 4.03 µM in test [9] and 1.03 µM in test [10]. Also, the TGI was 12.5 µM in [1]; 25.1 µM in [2]; 50.7 µM in [3]; 20.8 µM in test [4]; 14.2 µM in [5]; more than 29.9 µM in test [6]. Further, the TGI in [7] came to 19.4 µM; in test [8] it was 16.6 µM; in test [9] it was 12.9 µM; in test [10], 6.5 µM.
In the case of `CN1CCN(c2nc(C3=C(c4c[nH]c5ccccc45)C(=O)NC3=O)c3ccccc3n2)CC1`, the GI50 in test [1] is 12.9 µM and 15.4 µM; in test [2], 23.3 µM and 17.9 µM; in [3] it was 20.4 µM; in [4], 9.01 µM and 14.6 µM; in test [5], 4.43 µM and 4.8 µM; in test [6], 9.08 µM and 12.4 µM. Also, the GI50 in test [7] is 12.4 µM and 28.3 µM; in test [8], 12.8 µM and 16.3 µM; in test [9], 19.5 µM and 16.2 µM; in test [10], 11.6 µM. The TGI is 24.3 µM and 29.7 µM in test [1]; 65 µM and 38 µM in test [2]; 65 µM in test [3]; 27 µM and 38.3 µM in test [4]; 65 µM and 24.3 µM in [5]; 19.4 µM and 26.1 µM in [6]. Moreover, the TGI in [7] was 37.9 µM and 75.3 µM; in test [8] it was 22.6 µM and 31.2 µM; in test [9], 65 µM and 45.9 µM; in test [10], 36.2 µM.
For `COc1cccc(-n2cnc3c(N/N=C/c4ccncc4)ncnc32)c1`, the GI50 was 7.1 µM in test [1]; 17.3 µM in test [2]; more than 25 µM in [3]; 7.47 µM in [4]; 7.84 µM in [5]; 12.4 µM in [6]. The GI50 is more than 23.9 µM in test [7], 6.42 µM in [8], 7.88 µM in [9] and 12.3 µM in [10]. Moreover, the TGI in [1] is more than 23.2 µM; in [2], more than 25 µM; in [3], more than 25 µM; in test [4], more than 25 µM; in test [5] it was more than 25 µM; in test [6], more than 25 µM. Besides, the TGI in test [7] was more than 25 µM; in [8], more than 25 µM; in test [9], more than 23.7 µM; in test [10] it was more than 25 µM.
As for `Cc1c(Br)cccc1NC(=O)c1sc2nc3c(cc2c1N)CN(Cc1ccccc1)CC3`, the GI50 is 0.186 µM in test [1]; 0.168 µM in test [2]; 0.359 µM in [3]; 0.208 µM in test [4]; 0.168 µM in test [5]; 0.0366 µM in [6]. The GI50 in test [7] is 1.18 µM; in test [8], 0.123 µM; in test [9], 0.294 µM; in test [10] it was 0.107 µM. Also, the TGI in test [1] was 3.89 µM; in test [2], 2.99 µM; in [3] it was more than 50 µM; in [4] it was 15.4 µM; in test [5] it was 10.2 µM; in test [6], 0.141 µM. In addition, the TGI is 18.9 µM in [7], 0.402 µM in [8], 22.7 µM in [9] and more than 50 µM in test [10].
In the case of `COc1ccc(NC(=O)CC(=O)n2nc(-c3ccccc3)c(N=Nc3ccc(C)cc3)c2-c2ccccc2)cc1`, the TGI is more than 76.5 µM in test [1]; more than 100 µM in test [2]; more than 51.4 µM in test [3]; 60.7 µM in test [4]; more than 100 µM in test [5]; more than 100 µM in test [6]. Moreover, the TGI in test [7] stood at 58.3 µM; in test [8], 46.4 µM; in [9], 40 µM; in [10] it was 98.3 µM.
For `CC(=O)O/N=C1\C=Cc2c(no[n+]2[O-])C1=O`, the TGI was determined as 30.3 µM in test [1]; 32 µM in test [2]; 31.5 µM in test [3]; 56.3 µM in test [4]; 33.7 µM in test [5]; 36 µM in test [6]. The TGI in test [7] was more than 100 µM; in test [8], 28.5 µM; in test [10] it was 48.5 µM.
As for `CC(=O)c1c[nH]c2ccc(-c3ccnc(Nc4ccc(NC(=O)c5cccc(F)c5)c(CN5CCOCC5)c4)n3)cc12`, the GI50 in test [1] was 0.102 µM; in test [2], 0.185 µM; in test [3], 0.239 µM; in [4], 0.124 µM; in [5], 0.0892 µM; in test [6], 0.204 µM. For the same compound, the GI50 in [7] was 0.148 µM; in test [8], 0.0221 µM; in test [9] it was 0.562 µM; in test [10], 0.0363 µM. In addition, the TGI was 0.38 µM in [1]; more than 100 µM in [2]; 1.52 µM in test [3]; 1.02 µM in test [4]; 1.35 µM in [5]; 1.47 µM in test [6]. Besides, the TGI in test [7] was 1.76 µM; in test [8], 0.054 µM; in test [9] it was more than 100 µM; in test [10], more than 100 µM.
Turning to `Cc1cc(C)c2nc(Nc3nc(C)c(C)c(=O)[nH]3)nc(C)c2c1`, the GI50 in test [1] is 2.02 µM; in [2], 3.8 µM; in test [3], 2.58 µM; in [4] it was 4.53 µM; in test [5], 3.02 µM; in test [6] it was 3.13 µM. Further, the GI50 was 2.93 µM in test [7], 2.39 µM in test [8], 2.5 µM in test [9] and 2.18 µM in test [10]. Besides, the TGI is 5.54 µM in test [1]; 24.1 µM in test [2]; 10.9 µM in [3]; 34.1 µM in [4]; 23.9 µM in [5]; 13.2 µM in test [6]. In addition, the TGI in test [7] turned out to be 15.4 µM; in test [8], 7.55 µM; in test [9] it was 10.3 µM; in test [10] it was 7.43 µM.
`O=C1CCc2cc([N+](=O)[O-])ccc2O1`: the TGI in test [1], in [2], in [3], in test [4], in test [6] and in test [7] was more than 100 µM each time. Moreover, the TGI in [8] and in test [10] was more than 100 µM throughout.

The values above are taken from PubChem BioAssay (NCI).
